The values below come from US20100029604A1, “ANTIBACTERIAL COMBINATION AND ITS USE” (priority 2007, published 2010).

For orientation: MIC means the smallest concentration in the dilution series that meets the test's criterion for growth inhibition. One may read the IC50 as the midpoint of a concentration-inhibition curve. Low values mean higher potency, high ones lower potency.

≈ marks a conversion by molar mass, not a printed value. Where two headings read alike, the source gives them in different places.

Experiment [1] deals with E. cloacae AmpC. Put plainly: Synergy MIC, inhibitor at 4 μg/mL (Example 4). As to conditions: class C, inhibitor constant 4 μg/mL. Type of experiment: cell-based, Enterobacter Cloacae. How it is done:
(§1) The in vitro activities of the antibiotics were determined by the broth microdilution method and agar dilution technique as recommended by CLSI guidelines. The MIC experiments were performed in duplicate in 96-well microtiter plates using MHB. Serial twofold dilutions of each antibiotic either alone or in combination with a constant amount (4 μg/mL) of a β-lactamase inhibitor were prepared in MHBII broth. A sterile pipette tip was used to mix the contents of each well (one tip was used going from the low to the high concentration in the same column). The bacterial suspension with final inoculum 10^5 CFU/mL was transferred to the test medium containing the antibacterial substances by a multipoint inoculator (Dynatech, Chantilly, Va., USA). The plates were then incubated at 35° C. for 24 h.
(§2) Following procedures identical to those described in Example 3, representative compound of Formula (I) was tested for its ability to enhance antibiotic efficacy against Class C β-lactamase positive bacterial strains that are highly resistant to β-lactam antibiotics. Class C enzymes included AmpC β-lactamases of Enterobacter Cloacae and Citrobacter freundii.

Experiment [2] concerns E. coli SHV-3. The experiment in a line: Synergy MIC, inhibitor at 4 μg/mL (Example 4). Type of experiment: cell-based. As to conditions: SHV-3, class A, inhibitor constant 4 μg/mL.
Experiment [3] concerns C. freundii AmpC. Put plainly: Synergy MIC, inhibitor at 4 μg/mL (Example 4). Type of experiment: cell-based, Citrobacter freundii. Conditions: class C, inhibitor constant 4 μg/mL. The method, then: as §1, §2
Experiment [4] has as its system E. coli SHV-5. The experiment in a line: Synergy MIC, inhibitor at 4 μg/mL (Example 4). The format is cell-based. Conditions: SHV-5, class A, inhibitor constant 4 μg/mL.
Experiment [5] relates to K. pneumoniae SHV-18. Put plainly: Synergy MIC, inhibitor at 4 μg/mL (Example 4). Type of experiment: cell-based. As to conditions: SHV-18, class A, inhibitor constant 4 μg/mL.
In experiment [6] the test system is E. coli TEM-1. The format is cell-based. As to conditions: TEM-1, class A, inhibitor constant 4 μg/mL.
Experiment [7] deals with E. coli TEM-2. The format is cell-based. As to conditions: TEM-2, class A, inhibitor constant 4 μg/mL.
Experiment [8] has as its system E. coli TEM-1. Type of experiment: cell-based. Conditions: β-lactamase TEM-1, first listed (Table 3 r14), inhibitor constant 4 μg/mL. How it is done: (§3) Stock solutions of the test compounds and control antibiotics were prepared in distilled water according to the NCCLS guidelines [Methods for dilution antimicrobial tests for bacteria that grow aerobically. NCCLS document M7-A5; 2000; vol. 19. National Committee for Clinical Laboratory Standards, Villanova, Pa.]. All drug weights were corrected for salt forms and refer to the pure drug substance.
(§4) All tested strains and Clinical isolates were either purchased from the American Type Culture Collection (ATCC), or from the in-house company culture collection.
(§5) Stock cultures were prepared from broth cultures grown at 35° C. for 18-22 h without agitation and subsequent addition of 5% DMSO (v/v, final concentration) as cryoprotectant and stored frozen in liquid nitrogen. Mueller-Hinton II broth (MHBII) (BBL Cockeysville, Md.) was used for the testing procedure.
as §1
(§6) Representative compound of Formula (I) was evaluated against the serine-based Class A β-lactamases including TEM-type, SHV-type extended spectrum β-lactamases (ESBL) and various non-ESBL enzymes of enterobacteriaceae as well as BRO-type enzymes of Moraxella catarrhalis and penicillinases of Staphylococcus aureus.

Experiment [9] has as its system E. coli TEM-3. Type of experiment: cell-based. Conditions: β-lactamase TEM-3 (Table 3 r16), inhibitor constant 4 μg/mL. The method, then:
as §3, §4, §5, §1, §6

Experiment [10] relates to M. catarrhalis BRO-2. Put plainly: Synergy MIC, inhibitor at 4 μg/mL (Example 3). Type of experiment: cell-based, Moraxella catarrhalis. As to conditions: β-lactamase BRO-2 (Table 3 r18), inhibitor constant 4 μg/mL. How it is done: as §3, §4, §5, §1, §6
The subject of experiment [11] is C. freundii SHV-5. The experiment in a line: Synergy MIC, inhibitor at 4 μg/mL (Example 3). As to conditions: β-lactamase SHV-5 (Table 3 r10), inhibitor constant 4 μg/mL. The format is cell-based. How it is done:
as §3, §4, §5, §1, §6

For experiment [12], the system named is E. cloacae SHV-12. The experiment in a line: Synergy MIC, inhibitor at 4 μg/mL (Example 3). The format is cell-based. As to conditions: β-lactamase SHV-12 (Table 3 r11), inhibitor constant 4 μg/mL. How it is done: as §3, §4, §5, §1, §6
Experiment [13] relates to E. coli SHV-3. The experiment in a line: Synergy MIC, inhibitor at 4 μg/mL (Example 3). The format is cell-based. As to conditions: β-lactamase SHV-3 (Table 3 r9), inhibitor constant 4 μg/mL. How it is done: as §3, §4, §5, §1, §6
Experiment [14] relates to E. coli ESBL. Put plainly: Synergy MIC, inhibitor at 4 μg/mL (Example 3). The format is cell-based. Conditions: first listed (Table 3 r21), inhibitor constant 4 μg/mL. The method, then:
as §3, §4, §5, §1, §6

In experiment [15] the test system is K. oxytoca ESBL. Put plainly: Synergy MIC, inhibitor at 4 μg/mL (Example 3). Type of experiment: cell-based. As to conditions: ESBL (Table 3 r26), inhibitor constant 4 μg/mL. How it is done:
as §3, §4, §5, §1, §6

In experiment [16] the target is AmpC (Enterobacter cloacae, UniProt P05364). Type of experiment: biochemical, Enterobacter Cloaca. As to conditions: Class C β-lactamase; 10 min pre-incubation at 37° C., nitrocefin. How it is done: (§7) A standard test for the production of βlactamase involves use of the chromogenic cephalosporin, nitrocefin.
(§8) Homogeneously purified Class A β-lactamases TEM-1 and SHV-1 from E. coli and Class C enzyme AmpC from Enterobacter Cloaca were employed in the assay.
(§9) Compounds were prepared as 50 mM stocks in DMSO and diluted with buffer P1 (50 mM phosphate, pH 7) to a final concentration of 10% DMSO. All further dilutions were done using P2 (P1 with 10% DMSO). Enzyme and compound dilutions were pre-incubated for 10 min at 37° C. and the reaction started with the addition of pre-warmed (37° C.) nitrocefin (reporter substrate) at a final concentration of […]. The change in absorption at 490 nm was followed at 37° C. for 10 min at 30 sec intervals in a SPECTRAMAX 384 PLUS microplate reader (Molecular Devices, Sunnyvale, Calif.) using 96-well plates. The initial rate was determined and IC50 values were calculated using non-linear regression and sigmoidal dose response analysis with the PRISM 4.0 software (Graphpad Software Inc., San Diego, Calif.). IC50 data is expressed as μM and was calculated from at least two independent experiments.

The subject of experiment [17] is Class C β-lactamase (AmpC) producing strains. The experiment in a line: Synergy MIC, Class C strains of Example 4. Type of experiment: cell-based. As to conditions: all combinations used. How it is done: as §1, §2
The subject of experiment [18] is 55 laboratory strains producing characterized β-lactamases. The experiment in a line: MIC, whole panel of Example 5 (Tables 5-7). Type of experiment: cell-based. Conditions: LK-157 as single agent against the tested strains. The method, then:
The MIC experiments were performed in duplicate in 96-well microtiter plates using CAMHB. Serial twofold dilutions of each antibiotic either alone or in combination with constant concentration ratio of a β-lactamase inhibitor (2:1) were prepared in CAMHB. The bacterial suspension with final inoculum 10^5 CFU/mL was transferred to the test medium containing the antibacterial substances. In each well of a 96-well microtiter plate was combined 50 μL of bacterial inoculum, 50 μL of antibiotic dilutions (or media for determination of the MIC of the antibiotic in the absence of test compound). Each plate included 4 wells with no bacterial inoculum (negative control) and 4 wells with no test compound and no antibiotic (positive control). The plates were incubated at 35° C. for 24 h. Purity check and colony counts on each inoculum suspension was performed to ensure that the final inoculum concentration routinely obtained closely approximates 5×10^5 CFU/mL. In addition the assay is routinely monitored by testing standard antibiotics and ensuring that MIC values are within the recommended ranges for the respective strains.
This test permits comparisons to be made between bacterial growth in the presence of antibiotic alone and bacterial growth in the presence of both an antibiotic and a novel (test) compound.

Experiment [19] concerns M. catarrhalis BRO-1. The experiment in a line: Synergy MIC, inhibitor at 4 μg/mL (Example 3). The format is cell-based, Moraxella catarrhalis. Conditions: BRO-1 β-lactamases of M. catarrhalis. How it is done:
as §3, §4, §5, §1, §6

In experiment [20] the test system is S. aureus PC. The experiment in a line: Synergy MIC, inhibitor at 4 μg/mL (Example 3). Type of experiment: cell-based, Staphylococcus aureus. Conditions: penicillinases (PC-type) of S. aureus (MSSA). How it is done:
as §3, §4, §5, §1, §6

Experiment [21] concerns the target SHV-1 (Escherichia coli, UniProt P0AD63). Put plainly: IC50 determination, nitrocefin hydrolysis. Conditions: Class A β-lactamase, 10 min pre-incubation at 37° C. The format is biochemical, E. coli. The method, then: as §7, §8, §9
Experiment [22] concerns the target TEM-1 (Escherichia coli, UniProt P62593). Put plainly: IC50 determination, nitrocefin hydrolysis. Type of experiment: biochemical, E. coli. As to conditions: Class A β-lactamase, 10 min pre-incubation at 37° C. How it is done: as §7, §8, §9
In experiment [23] the test system is C. freundii SHV-5. Put plainly: Synergy MIC, inhibitor at 4 μg/mL (Example 4). The format is cell-based. As to conditions: SHV-5, class A, inhibitor constant 4 μg/mL.
Experiment [24] concerns Klebsiella pneumoniae ATCC 700603. The experiment in a line: MIC broth microdilution (Example 2). Conditions: Klebsiella pneumoniae ATCC 700603 producing SHV-18. (In general: Broth dilution looks for growth in wells or tubes with falling amounts of substance.)
For experiment [25], the system named is Klebsiella oxytoca ATCC 51983. Put plainly: MIC broth microdilution (Example 2). As to conditions: ATCC51983.

Sequence of AmpC (P05364 21-381): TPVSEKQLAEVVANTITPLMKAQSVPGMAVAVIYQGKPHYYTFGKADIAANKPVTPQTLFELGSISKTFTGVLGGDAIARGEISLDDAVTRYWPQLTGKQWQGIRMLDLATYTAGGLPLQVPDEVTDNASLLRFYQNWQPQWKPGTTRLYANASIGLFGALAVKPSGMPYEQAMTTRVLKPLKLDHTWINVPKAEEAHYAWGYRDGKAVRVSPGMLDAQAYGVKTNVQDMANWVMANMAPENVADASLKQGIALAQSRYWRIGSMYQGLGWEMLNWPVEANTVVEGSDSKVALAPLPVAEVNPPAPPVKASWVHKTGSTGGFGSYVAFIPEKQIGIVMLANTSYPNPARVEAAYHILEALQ
Sequence of SHV-1 (P0AD63 22-286): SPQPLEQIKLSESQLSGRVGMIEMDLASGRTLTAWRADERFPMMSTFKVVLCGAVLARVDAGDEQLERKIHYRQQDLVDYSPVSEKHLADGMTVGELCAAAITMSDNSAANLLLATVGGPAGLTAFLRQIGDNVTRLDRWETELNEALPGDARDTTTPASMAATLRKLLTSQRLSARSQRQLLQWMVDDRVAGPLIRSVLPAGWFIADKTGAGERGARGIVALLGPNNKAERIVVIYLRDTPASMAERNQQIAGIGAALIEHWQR
Sequence of TEM-1 (P62593 24-286 limits assumed): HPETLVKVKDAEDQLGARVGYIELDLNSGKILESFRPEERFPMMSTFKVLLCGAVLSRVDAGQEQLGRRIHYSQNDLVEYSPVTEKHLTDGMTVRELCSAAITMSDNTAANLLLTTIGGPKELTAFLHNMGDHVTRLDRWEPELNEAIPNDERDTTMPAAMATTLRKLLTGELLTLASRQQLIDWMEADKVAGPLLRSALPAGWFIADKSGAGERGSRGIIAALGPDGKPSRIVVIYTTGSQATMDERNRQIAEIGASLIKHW

For the molecule `CO/N=C(\C(=O)N[C@@H]1C(=O)N2C(C(=O)[O-])=C(C[n+]3cccc4c3CCC4)CS[C@H]12)c1csc(N)n1` [Cefpirome, cefpirome], the MIC in [1] (first listed) was 6.4 µg/mL; in [1] (second listed) it was 3.2 µg/mL; in experiment [1] (third listed), 3.2 µg/mL; in [2] it was 0.8 µg/mL; in experiment [3], 1.6 µg/mL; in experiment [4], greater than 25.6 µg/mL. Moreover, the MIC in experiment [5] is 0.8 µg/mL; in experiment [6], 25.6 µg/mL (≈ 49.7 µM); in experiment [7], “≦0.025”.

For the molecule `C[C@H]1[C@H](NC(=O)/C(=N\OC(C)(C)C(=O)O)c2csc(N)n2)C(=O)N1S(=O)(=O)O` [Aztreonam, aztreonam], the MIC is 25.6 µg/mL in experiment [1] (first listed); greater than 25.6 µg/mL in [1] (second listed); 12.8 µg/mL in experiment [1] (third listed); 0.4 µg/mL in experiment [2]; greater than 25.6 µg/mL in experiment [3]; greater than 25.6 µg/mL in experiment [4]. Also, the figures for the MIC in [5], in experiment [6] and in experiment [7] were greater than 25.6 µg/mL, 12.8 µg/mL (≈ 29.4 µM) and 0.1 µg/mL (≈ 0.23 µM), respectively.

As for `CCN1CCN(C(=O)N[C@@H](C(=O)N[C@@H]2C(=O)N3[C@@H]2SC(C)(C)[C@@H]3C(=O)O)c2ccccc2)C(=O)C1=O` [PIP, piperacillin], the MIC was greater than 25.6 µg/mL in [8]; greater than 25.6 µg/mL in experiment [9]; 1.6 µg/mL in [10]; greater than 25.6 µg/mL in [11]; greater than 25.6 µg/mL in [12]; greater than 25.6 µg/mL in experiment [13]. The MIC in [14] was determined as 0.8 µg/mL; in experiment [15] it was 3.2 µg/mL.

Take `C/C=C1/C(=O)N2C(C(=O)O)=C3[C@@H](OC)CCC[C@@H]3[C@H]12` [Compound 1a, (4S,8S,9R)-4-methoxy-10-((E)-ethylidene)-11-oxo-1-azatricyclo[7.2.0.0^3,8]undec-2-ene-2-carboxylic acid]: the IC50 was determined as 62 nM in [16], 151 nM in experiment [21] and 55 nM in [22]. Besides, the “activity compared with tazobactam” value in experiment [17] is “superior to tazobactam”. The “antibiotic activity per se” value in experiment [18] is on record as “did not display antibiotic activity per se”. Also, the “activity compared with other β-lactamase inhibitors” value in experiment [19] and in experiment [20] was “more active than the other tested β-lactamase inhibitors” each time.

With `CO/N=C(\C(=O)N[C@@H]1C(=O)N2C(C(=O)O)=C(CSc3nc(=O)c(=O)[nH]n3C)CS[C@H]12)c1csc(N)n1` [ceftriaxone], the MIC in experiment [1] (first listed) is greater than 25.6 µg/mL; in [1] (second listed), greater than 25.6 µg/mL; in experiment [1] (third listed) it was greater than 25.6 µg/mL; in experiment [2], 3.2 µg/mL; in experiment [23], 25.6 µg/mL; in experiment [3], greater than 25.6 µg/mL. Moreover, the MIC is greater than 25.6 µg/mL in [4]; 6.4 µg/mL in experiment [5]; greater than 25.6 µg/mL in experiment [6]; 2 to 8 µg/mL (≈ 3.61 to 14.4 µM) in experiment [25]; “≦0.025” in [7]. Moreover, the “susceptibility of the strain to the antibiotic” value in [24] is listed as “susceptible”.
